Experiment: Inhibition of glycogen phosphorylase b (unknown origin)
Design: species or system Homo sapiens

Ki [mM] | SMILES
16.8 | NC[C@@H]1O[C@H](CO)[C@@H](O)[C@H](O)[C@H]1O
4.5 | NCC[C@@H]1O[C@H](CO)[C@@H](O)[C@H](O)[C@H]1O
34.5 | NC[C@H]1O[C@H](CO)[C@@H](O)[C@H](O)[C@H]1O
0.044 | O=C(CBr)N[C@@H]1O[C@H](CO)[C@@H](O)[C@H](O)[C@H]1O
3.7 | CS(=O)(=O)OC[C@]1(O)O[C@H](CO)[C@@H](O)[C@H](O)[C@H]1O
7.4 | [N-]=[N+]=NC[C@]1(O)O[C@H](CO)[C@@H](O)[C@H](O)[C@H]1O
24.7 | CO[C@@H]1O[C@H](CO)[C@@H](O)[C@H](O)[C@H]1O
8.1 | O=C(NCC(F)(F)F)[C@@H]1O[C@H](CO)[C@@H](O)[C@H](O)[C@H]1O
15.2 | O=C(O)[C@H]1O[C@H](CO)[C@@H](O)[C@H](O)[C@H]1O
1 | OC[C@H]1O[C@@H](S)[C@H](O)[C@@H](O)[C@@H]1O
0.016 | COC(=O)N[C@]1(C(N)=O)O[C@H](CO)[C@@H](O)[C@H](O)[C@H]1O
9 | N#CC[C@@H]1O[C@H](CO)[C@@H](O)[C@H](O)[C@H]1O
4.8 | CS(=O)(=O)OC[C@@H]1O[C@H](CO)[C@@H](O)[C@H](O)[C@H]1O
0.16 | CNC(=O)[C@@H]1O[C@H](CO)[C@@H](O)[C@H](O)[C@H]1O
2.8 | COC(=O)[C@@H]1O[C@H](CO)[C@@H](O)[C@H](O)[C@H]1O
3 | NNC(=O)[C@H]1O[C@H](CO)[C@@H](O)[C@H](O)[C@H]1O
0.44 | NC(=O)[C@@H]1O[C@H](CO)[C@@H](O)[C@H](O)[C@H]1O
2 | OC[C@H]1S[C@H](O)[C@H](O)[C@@H](O)[C@@H]1O
0.085 | COC(=O)N[C@@H]1O[C@H](CO)[C@@H](O)[C@H](O)[C@H]1O
5.6 | O=C(Nc1ccc(O)cc1)[C@H]1O[C@H](CO)[C@@H](O)[C@H](O)[C@H]1O
15.8 | OC[C@H]1O[C@@](O)(CO)[C@H](O)[C@@H](O)[C@@H]1O
0.37 | NCC(=O)N[C@@H]1O[C@H](CO)[C@@H](O)[C@H](O)[C@H]1O
53.1 | C[C@H]1O[C@H](CO)[C@@H](O)[C@H](O)[C@H]1O
24.2 | COC(=O)[C@H]1O[C@H](CO)[C@@H](O)[C@H](O)[C@H]1O
0.37 | NC(=O)[C@H]1O[C@H](CO)[C@@H](O)[C@H](O)[C@H]1O

Ki [mM] | SMILES
7.6 | N#CC[C@]1(O)O[C@H](CO)[C@@H](O)[C@H](O)[C@H]1O
4.4 | O=C(Nc1ccc(O)cc1)[C@@H]1O[C@H](CO)[C@@H](O)[C@H](O)[C@H]1O
0.146 | NN1C(=O)NC2(O[C@H](CO)[C@@H](O)[C@H](O)[C@H]2O)C1=O (stereo partly specified)
0.0597 | O=C1CNC(=O)C2(N1)O[C@H](CO)[C@@H](O)[C@H](O)[C@H]2O (stereo partly specified)
0.4 | NNC(=O)[C@@H]1O[C@H](CO)[C@@H](O)[C@H](O)[C@H]1O
5.4 | O=C(Nc1ccccc1)[C@@H]1O[C@H](CO)[C@@H](O)[C@H](O)[C@H]1O
12.6 | O=C(Nc1ccccc1)[C@H]1O[C@H](CO)[C@@H](O)[C@H](O)[C@H]1O
1.3 | O=C(NC1CC1)[C@@H]1O[C@H](CO)[C@@H](O)[C@H](O)[C@H]1O
36.7 | CNC(=O)[C@H]1O[C@H](CO)[C@@H](O)[C@H](O)[C@H]1O
27.2 | O=C(NCc1ccc(F)cc1F)[C@H]1O[C@H](CO)[C@@H](O)[C@H](O)[C@H]1O
2.6 | OC[C@H]1O[C@@H](Oc2cc3ccccc3[nH]2)[C@H](O)[C@@H](O)[C@@H]1O
1.5 | OC[C@H]1O[C@H](CO)[C@@H](O)[C@H](O)[C@H]1O
22.4 | [N-]=[N+]=NC[C@H]1O[C@H](CO)[C@@H](O)[C@H](O)[C@H]1O
0.045 | O=C(CCl)NC1O[C@H](CO)[C@@H](O)[C@H](O)[C@H]1O (single isomer, unassigned)
21.1 | NC(=O)CSC1O[C@H](CO)[C@@H](O)[C@H](O)[C@H]1O (single isomer, unassigned)
18.9 | O=C(CSC1O[C@H](CO)[C@@H](O)[C@H](O)[C@H]1O)Nc1ccc(F)cc1F (single isomer, unassigned)
3.6 | O=C(CSC1O[C@H](CO)[C@@H](O)[C@H](O)[C@H]1O)Nc1ccccc1 (single isomer, unassigned)
1.8 | CNNC(=O)C1O[C@H](CO)[C@@H](O)[C@H](O)[C@H]1O (single isomer, unassigned)
0.14 | NC(=O)NC1O[C@H](CO)[C@@H](O)[C@H](O)[C@H]1O (single isomer, unassigned)
0.094 | CCCC(=O)NC1O[C@H](CO)[C@@H](O)[C@H](O)[C@H]1O (single isomer, unassigned)
0.081 | O=C(NC1O[C@H](CO)[C@@H](O)[C@H](O)[C@H]1O)c1ccccc1 (single isomer, unassigned)
0.99 | CC(=O)NCC(=O)NC1O[C@H](CO)[C@@H](O)[C@H](O)[C@H]1O (single isomer, unassigned)
0.039 | CCC(=O)NC1O[C@H](CO)[C@@H](O)[C@H](O)[C@H]1O (single isomer, unassigned)
0.032 | CC(=O)NC1O[C@H](CO)[C@@H](O)[C@H](O)[C@H]1O (single isomer, unassigned)

SMILES | Ki [mM]
O=C(NCCO)[C@H]1O[C@H](CO)[C@@H](O)[C@H](O)[C@H]1O | 16.9
O=C(NCCO)[C@@H]1O[C@H](CO)[C@@H](O)[C@H](O)[C@H]1O | 2.6
